# Patent US20100113438A1, “CLASS OF HISTONE DEACETYLASE INHIBITORS” (DAC S.R.L., priority 2006, published 2010)
# Tests used:
# [1] = test system: HDAC (nuclear extract of HeLa cells); test: Assay of enzyme inhibition of HDAC (BIOMOL Kit); assay type: biochemical; conditions: substrate 116 μM
# Description: The in-vitro activity of HDAC inhibitors was assayed by means of a biochemical assay using a BIOMOL Kit, according to the recommended experimental conditions. […] The samples were incubated for 10 minutes at room temperature and then exposed to a developer (15 minutes at room temperature). In this last step a fluorophore was produced, whose fluorescence was measured using an excitation wavelength of 355 nm and an emission at 460 nm.
# [2] = Metabolic stability in hepatic microsomes (mouse); assay type: in vitro ADME; conditions: mouse hepatic microsomes 0.5 mg/ml, compound 1 μM, 37° C., pH 7.4, 30 min
# Description: (§1) The test compound was dissolved in DMSO at the final concentration of 1 μM and pre-incubated for 10 min at 37° C. in potassium phosphate buffer pH 7.4 together with mouse or human hepatic microsomes (Xenotech) at the final concentration of 0.5 mg/ml.
# (§2) After the pre-incubation the reaction was started by adding the cofactor mixture (NADP, G6P, G6P-DH); aliquots were taken at time 0 and 30 min, added to acetonitrile in order to stop the reaction. After centrifugation the supernatant was separated and analyzed by LC-MS/MS.
# (§3) A control sample without cofactor was always studied in parallel in order to check the chemical stability of the test compound.
# (§4) Two reference compounds of known metabolic stability 7-ethoxycoumarin and propranolol were present each time to access the validity of the experiment.
# (§5) A fixed concentration of verapamil was added in each sample as internal standard for the LC-MS/MS analysis.
# (§6) The percentage of the compound remaining after 30 min incubation period was calculated according the following equation: [area at time 30 min]/[area at time 0 min]*100%.
# [3] = Metabolic stability in hepatic microsomes (human); assay type: in vitro ADME; conditions: human hepatic microsomes 0.5 mg/ml, compound 1 μM, 37° C., pH 7.4, 30 min
# Description: as §1, §2, §3, §4, §5, §6
Structure (SMILES),IC50 [1] [nM],Met. mouse (percentage of the compound remaining after 30 min incubation) [2] [%],Met. human (percentage of the compound remaining after 30 min incubation) [3] [%]
"CC(=O)N1CCN(Cc2ccc(C(=O)/C=C/c3ccc(/C=C/C(=O)NO)cc3)cc2)CC1 [Example 30, (E)-3-(4-{(E)-3-[4-(4-Acetyl-piperazin-1-ylmethyl)-phenyl]-3-oxo-propenyl}-phenyl)-N-hydroxy-acrylamide]",25,,
"O=C(/C=C/c1ccc(/C=C/C(=O)c2ccc(N3CCOCC3)cc2)c(F)c1)NO [Ref (*) 29, reference compound]",282,11.17,20.86
"CN1CCN(c2cc(Cl)cc(C(=O)/C=C/c3ccc(/C=C/C(=O)NO)cc3)c2)CC1 [Example 25, (E)-3-(4-{(E)-3-[3-Chloro-5-(4-methyl-piperazin-1-yl)-phenyl]-3-oxo-propenyl}-phenyl)-N-hydroxy-acrylamide]",35,84.89,57.28
"CN1CCN(Cc2ccccc2C(=O)/C=C/c2ccc(/C=C/C(=O)NO)nc2)CC1 [Example 47, (E)-N-Hydroxy-3-(5-{(E)-3-[2-(4-methyl-piperazin-1-ylmethyl)-phenyl]-3-oxo-propenyl}-pyridin-2-yl)-acrylamide]",,52.66,93.48
"C[C@@H]1CN(c2ccc(C(=O)/C=C/c3ccc(/C=C/C(=O)NO)nc3)cc2)C[C@H](C)N1C [Example 39, (E)-N-Hydroxy-3-(5-{(E)-3-oxo-3-[4-((3R,5S)-3,4,5-trimethyl-piperazin-1-yl)-phenyl]-propenyl}-pyridin-2-yl)-acrylamide]",6.1,20.29,44.35
"CC(=O)N1CCN(c2ccc(C(=O)/C=C/c3ccc(/C=C/C(=O)NO)nc3)cc2)CC1 [Example 42, (E)-3-(5-{(E)-3-[4-(4-Acetyl-piperazin-1-yl)-phenyl]-3-oxo-propenyl}-pyridin-2-yl)-N-hydroxy-acrylamide]",4.8,50.47,35.27
"CN1CCN(c2ccccc2C(=O)/C=C/c2ccc(/C=C/C(=O)NO)cc2)CC1 [Example 1, (E)-N-Hydroxy-3-(4-{(E)-3-[2-(4-methyl-piperazin-1-yl)-phenyl]-3-oxo-propenyl}-phenyl)-acrylamide]",,33.81,38.16
"O=C(/C=C/c1ccc(/C=C/C(=O)c2ccccc2)cn1)NO [Ref (*) 69, reference compound]",,5.65,13.74
"O=C(/C=C/c1ccc(/C=C/C(=O)c2ccc(CN3CCNCC3)cc2)cc1)NO [Example 26, (E)-N-Hydroxy-3-{4-[(E)-3-oxo-3-(4-piperazin-1-ylmethyl-phenyl)-propenyl]-phenyl}-acrylamide]",,42.41,50.84
"O=C(/C=C/c1ccc(/C=C/C(=O)c2ccc(N3CCNCC3)cc2)cn1)NO [Example 45, (E)-N-Hydroxy-3-{5-[(E)-3-oxo-3-(4-piperazin-1-yl-phenyl)-propenyl]-pyridin-2-yl}-acrylamide]",0.7,43.41,53.65
"O=C(/C=C/c1ccc(/C=C/C(=O)c2ccc(F)c(F)c2)cn1)NO [Ref (*) 72, reference compound]",20,10.83,15.32
"O=C(/C=C/c1ccc(/C=C/C(=O)c2cccs2)cn1)NO [Ref (*) 71, reference compound]",67.5,6.04,21.82
"COc1cc(C(=O)/C=C/c2ccc(/C=C/C(=O)NO)cc2)ccc1CN1CCOCC1 [Ref (*) 48, reference compound]",,2.8,35.28
"O=C(/C=C/c1ccc(/C=C/C(=O)c2ccc(N3CCOCC3)cc2)cc1)NO [Ref (*) 41, reference compound]",238,2.76,8.66
"CN1CCN(c2ccc(C(=O)/C=C/c3ccc(/C=C/C(=O)NO)cc3)cc2)CC1 [Ref (*) 59, reference compound]",,9.12,33.29
"O=C(/C=C/c1ccc(/C=C/C(=O)c2ccc(N3CCNCC3)cc2)cc1)NO [Example 15, (E)-N-Hydroxy-3-{4-[(E)-3-(4-piperazin-1-yl-phenyl)-3-oxo-propenyl]-phenyl}-acrylamide]",,30.5,42.58
"C[C@@H]1CN(c2cccc(C(=O)/C=C/c3ccc(/C=C/C(=O)NO)nc3)c2)C[C@H](C)N1C [Example 43, (E)-N-Hydroxy-3-(5-{(E)-3-oxo-3-[3-((3R,5S)-3,4,5-trimethyl-piperazin-1-yl)-phenyl]-propenyl}-pyridin-2-yl)-acrylamide]",4,42.45,37.29
"CN1CCC(Cc2ccc(C(=O)/C=C/c3ccc(/C=C/C(=O)NO)nc3)cc2)CC1 [Example 44, (E)-N-Hydroxy-3-(5-{(E)-3-[4-(1-methyl-piperidin-4-ylmethyl)-phenyl]-3-oxo-propenyl}-pyridin-2-yl)-acrylamide]",1.3,54.56,34.38
"CN1CCN(Cc2ccc(C(=O)/C=C/c3ccc(/C=C/C(=O)NO)cc3)cc2)CC1 [Example 7, (E)-N-Hydroxy-3-(4-{(E)-3-[4-(4-methyl-piperazin-1-yl-methyl)-phenyl]-3-oxo-propenyl}-phenyl)-acrylamide]",,16.75,61.16
"CN(C)C1CCN(c2ccc(C(=O)/C=C/c3ccc(/C=C/C(=O)NO)cc3)cc2)CC1 [Example 4, (E)-3-(4-{(E)-3-[4-(4-Dimethylamino-piperidin-1-yl)-phenyl]-3-oxo-propenyl}-phenyl)-N-hydroxy-acrylamide]",,14.00,41.88
